The text below walks through data of US20260176270A1 (Exelixis, Inc., priority 2022, published 2026).

Like-named read-outs stand apart in the source and are kept apart here.

The target in one assay is T1, PKMYT1 (Homo sapiens, UniProt Q99640).
T1 construct: PKMYT1 (93 kD, full length, N-terminal GST tag from Signal Chem); GST (N); purchased Signal Chem
T1 sequence (Q99640 1-499): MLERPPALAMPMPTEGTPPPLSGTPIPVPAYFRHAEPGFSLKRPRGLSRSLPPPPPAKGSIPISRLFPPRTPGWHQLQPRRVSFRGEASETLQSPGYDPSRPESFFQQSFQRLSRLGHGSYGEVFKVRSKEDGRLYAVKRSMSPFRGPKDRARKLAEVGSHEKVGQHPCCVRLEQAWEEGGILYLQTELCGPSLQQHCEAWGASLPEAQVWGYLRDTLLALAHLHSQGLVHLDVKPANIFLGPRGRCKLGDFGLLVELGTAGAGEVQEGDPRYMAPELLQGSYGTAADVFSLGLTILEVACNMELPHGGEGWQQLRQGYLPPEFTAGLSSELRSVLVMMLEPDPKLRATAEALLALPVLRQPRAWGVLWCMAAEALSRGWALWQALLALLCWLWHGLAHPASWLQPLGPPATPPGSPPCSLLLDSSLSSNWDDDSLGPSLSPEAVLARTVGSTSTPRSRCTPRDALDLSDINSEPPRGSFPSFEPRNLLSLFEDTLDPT
Briefly: ADP-Glo PKMYT1 ATP-depletion assay. As to conditions: 50 nM PKMYT1, 13.3 nM CDK1, read-out: Biochemical IC50. The method, boiled down: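 Full-length N-terminal GST-tagged PKMYT1 (50 nM) with GST-CDK1 (13.3 nM) as substrate and 88 µM ATP, in Hepes buffer with MgCl2, MnCl2, DTT and BSA; DMSO <1%. Incubated 120 min at RT. ADP formed was quantified by ADP-Glo luminescence and used to derive biochemical IC50.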

Assay [1] has as its system phosphorylation of CDK1 at Thr14 in HCC1806 cells. Kind of assay: Cell lysate AlphaLISA assay measuring inhibition of phosphorylation of CDK1 Thr14. The format is cell-based. To be noted: read-out: Cellular IC50. The procedure, abridged: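 HCC1806 cells seeded overnight, then treated 4 h at 37 °C, 5% CO2 with compounds in DMSO; washed and lysed, lysates frozen overnight at −80 °C. CDK1 Thr14 phosphorylation read by AlphaLISA SureFire Ultra; data normalized to DMSO (0% inhibition) and 3 μM reference compound to give IC50.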

`Cc1c(O)cccc1-c1c(N)c(C(N)=O)nc2cccc(C#N)c12` (atropisomer, axis not shown) [Compound 242]: the half-maximal inhibitory concentration (IC50) (at PKMYT1; in assay [1] (4 hours)) was less than 50 nM throughout.

Consider `Cc1nc2cc(C(N)=O)c(N)c(-c3cccc(O)c3C)c2nc1C` [Compound 91, 7-Amino-8-(3-hydroxy-2-methylphenyl)-2,3-dimethylquinoxaline-6-carboxamide], for which the IC50 at PKMYT1 is 50 to 500 nM; in assay [1] (Homo sapiens, HCC1806, 4 h), 50 to 500 nM.

`Cc1cnc2[nH]ncc2c1-c1c(N)c(C(N)=O)cc2nccnc12` [Compound 234]: the IC50 on PKMYT1 is no less than 5000 nM; in assay [1] (Homo sapiens, HCC1806, 4 h), no less than 5000 nM.

As to `NC(=O)c1cc2nccnc2c(-c2c(Cl)ccc3[nH]ncc23)c1N` (atropisomer, axis not shown) [Compound 247], the IC50 is 1000 to 5000 nM on PKMYT1 and no less than 5000 nM in assay [1] (4 hours).

In the case of `Cc1c(CO)cccc1-c1c(N)c(C(N)=O)nc2cccnc12` [Compound 249], the half-maximal inhibitory concentration (IC50) at PKMYT1 was no less than 5000 nM; in assay [1] (Homo sapiens, HCC1806, 4 h), no less than 5000 nM.

In the case of `Cc1ccc(O)c(C)c1-c1c(N)c(C(N)=O)cc2cc(Cl)cnc12` [Compound 177], the IC50 at PKMYT1 is less than 50 nM; in assay [1] (4 hours), 50 to 500 nM.

For the compound `Cc1c(O)cccc1-c1c(N)c(C(N)=O)cc2nc(C(F)(F)F)cnc12` [Compound 189], the IC50 lay within 50 to 500 nM on PKMYT1 and 500 to 1000 nM in assay [1] (4 hours).

With `Cc1c(O)cc(Cl)cc1-c1c(N)c(C(N)=O)nc2cccnc12` [Compound 248], the IC50 lay in the range of 50 to 500 nM at PKMYT1 and 1000 to 5000 nM in assay [1] (4 hours).

For the compound `Cc1c(O)cccc1-c1c(N)c(C(N)=O)cc2c1ncc(=O)n2C` [Compound 219], the IC50 was 1000 to 5000 nM on PKMYT1 and no less than 5000 nM in assay [1] (Homo sapiens, HCC1806, 4 h).

On to `COc1ccc2nc(C(N)=O)c(N)c(-c3c(C)ccc(O)c3C)c2c1` [Compound 48, 3-Amino-4-(3-hydroxy-2,6-dimethylphenyl)-6-methoxyquinoline-2-carboxamide], for which the IC50 at PKMYT1 lay in the range of 50 to 500 nM; in assay [1] (Homo sapiens, HCC1806, 4 h) it was 50 to 500 nM.

For the compound `NC(=O)c1nc2cccnc2c(-c2cccc3occc23)c1N` [Compound 250], the concentration for half-maximal inhibition (IC50) at PKMYT1 was no less than 5000 nM; in assay [1] (Homo sapiens, HCC1806, 4 h), no less than 5000 nM.

As for `Cc1nc(F)ccc1-c1c(N)c(C(N)=O)nc2cccnc12` [Compound 228], the IC50 on PKMYT1 is no less than 5000 nM; in assay [1] (Homo sapiens, HCC1806, 4 h), no less than 5000 nM.

Take `Cc1ccc(O)c(C)c1-c1c(N)c(C(N)=O)nc2nccnc12` (single isomer, unassigned) [Compound 128, (M)-7-Amino-8-(3-hydroxy-2,6-dimethylphenyl)pyrido[2,3-b]pyrazine-6-carboxamide]: the IC50 was 1000 to 5000 nM on PKMYT1 and no less than 5000 nM in assay [1] (4 hours).

Take `Cc1ccc2c(-c3cccc(O)c3C)c(N)c(C(N)=O)nc2c1` (single isomer, unassigned) [Compound 50, (P)-3-amino-4-(3-hydroxy-2-methylphenyl)-7-methylquinoline-2-carboxamide]: the half-inhibitory concentration (IC50) (on PKMYT1; in assay [1] (4 hours)) was no less than 5000 nM in each case.

As to `Cc1ccc(O)cc1-c1c(N)c(C(N)=O)cc2nccnc12` (atropisomer, axis not shown; (M)) [Compound 116, (M)-7-Amino-8-(5-hydroxy-2-methylphenyl)quinoxaline-6-carboxamide], the IC50 on PKMYT1 was in the range of 50 to 500 nM; in assay [1] (4 hours) it was 500 to 1000 nM.

`NC(=O)c1cc2nccnc2c(-c2ccc3ncoc3c2)c1N` [Compound 198]: the half-inhibitory concentration (IC50) at PKMYT1 is no less than 5000 nM; in assay [1] (Homo sapiens, HCC1806, 4 h) it was no less than 5000 nM.

As for `Cc1ccc(O)c(C)c1-c1c(N)c(C(N)=O)cc2nccnc12` (single isomer, unassigned) [Compound 83, (P)-7-Amino-8-(3-hydroxy-2,6-dimethylphenyl)quinoxaline-6-carboxamide], the IC50 was less than 50 nM on PKMYT1 and 50 to 500 nM in assay [1] (4 hours).

As to `COc1cccc(-c2c(N)c(C(N)=O)nc3cccnc23)c1C` [Compound 1, 3-Amino-4-(3-methoxy-2-methylphenyl)-1,5-naphthyridine-2-carboxamide], the IC50 is no less than 5000 nM on PKMYT1 and no less than 5000 nM in assay [1] (Homo sapiens, HCC1806, 4 h).

Take `Cc1ccc(O)c(C)c1-c1c(N)c(C(N)=O)nc2ccc(C(F)(F)F)cc12` [Compound 34]: the IC50 was 1000 to 5000 nM on PKMYT1 and 1000 to 5000 nM in assay [1] (Homo sapiens, HCC1806, 4 h).

On to `Cc1c(O)cccc1-c1cc(C(N)=O)nc2ccccc12` [Compound 13], for which the IC50 on PKMYT1 is 1000 to 5000 nM; in assay [1] (Homo sapiens, HCC1806, 4 h) it was no less than 5000 nM.

Consider `Cc1ccc2[nH]ncc2c1-c1c(N)c(C(N)=O)cc2nccnc12` (single isomer, unassigned) [Compound 78, (P)-7-Amino-8-(5-methyl-1H-indazol-4-yl)quinoxaline-6-carboxamide], for which the concentration for half-maximal inhibition (IC50) on PKMYT1 is 50 to 500 nM; in assay [1] (4 hours), 1000 to 5000 nM.

Consider `Cc1ccc2[nH]ncc2c1-c1c(N)c(C(N)=O)cc2cccnc12` [Compound 143], for which the IC50 at PKMYT1 lay within 50 to 500 nM; in assay [1] (Homo sapiens, HCC1806, 4 h), 1000 to 5000 nM.

In the case of `COc1nc2c(-c3cccc(O)c3C)c(N)c(C(N)=O)cc2nc1C` [Compound 173], the IC50 (at PKMYT1; in assay [1] (4 hours)) was 50 to 500 nM each time.

Turning to `COc1nc2c(-c3cccc(O)c3C)c(N)c(C(N)=O)cc2nc1C` (atropisomer, axis not shown) [Compound 218], the concentration for half-maximal inhibition (IC50) was less than 50 nM at PKMYT1 and 500 to 1000 nM in assay [1] (4 hours).

Take `Cc1c(O)cccc1-c1c(N)c(C(N)=O)nc2cc(C(F)(F)F)ccc12` (atropisomer, axis not shown) [Compound 148]: the concentration for half-maximal inhibition (IC50) (on PKMYT1; in assay [1] (4 hours)) was no less than 5000 nM throughout.

For the compound `CC1=C(c2c(N)c(C(N)=O)nc3cccnc23)CCCC1=O` [Compound 303], the concentration for half-maximal inhibition (IC50) on PKMYT1 was no less than 5000 nM; in assay [1] (Homo sapiens, HCC1806, 4 h) it was no less than 5000 nM.

`NC(=O)c1nc2cccnc2c(-c2cccc3[nH]cnc23)c1N` [Compound 181]: the IC50 at PKMYT1 is no less than 5000 nM; in assay [1] (Homo sapiens, HCC1806, 4 h), no less than 5000 nM.

`Cc1c(-c2c(N)c(C(N)=O)cc3nccnc23)ccc(F)c1O` (atropisomer, axis not shown) [Compound 295]: the results for the IC50 (at PKMYT1; in assay [1] (4 hours)) were less than 50 nM and 50 to 500 nM, respectively.

Regarding `NC(=O)c1cc2nccnc2c(-c2cccc3cncn23)c1N` [Compound 316], the IC50 at PKMYT1 was 500 to 1000 nM; in assay [1] (Homo sapiens, HCC1806, 4 h), no less than 5000 nM.

For the compound `Cc1c(O)cccc1-c1c(N)c(C(N)=O)cc2nc(C)c(=O)n(C)c12` (atropisomer, axis not shown) [Compound 171], the figures for the IC50 (at PKMYT1; in assay [1] (4 hours)) were 50 to 500 nM and 1000 to 5000 nM, respectively.

On to `NC(=O)c1cc2nccnc2c(-c2cc(O)cnc2Cl)c1N` (atropisomer, axis not shown) [Compound 163], for which the IC50 at PKMYT1 is 1000 to 5000 nM; in assay [1] (4 hours) it was no less than 5000 nM.

In the case of `Cc1cnc2c(-c3cccc(O)c3C)c(N)c(C(N)=O)cc2n1` (atropisomer, axis not shown) [Compound 201], the half-maximal inhibitory concentration (IC50) (on PKMYT1; in assay [1] (4 hours)) was no less than 5000 nM in each case.

With `Cc1c(O)cccc1-c1c(N)c(C(N)=O)cc2nc(C(F)(F)F)c(O)nc12` (atropisomer, axis not shown) [Compound 136], the IC50 (on PKMYT1; in assay [1] (4 hours)) was no less than 5000 nM in each case.

Turning to `Cc1ccc(O)c(C)c1-c1c(N)c(C(N)=O)nc2ccccc12` (atropisomer, axis not shown; (P)) [Compound 45, (P)-3-amino-4-(3-hydroxy-2,6-dimethylphenyl)quinoline-2-carboxamide], the IC50 is 1000 to 5000 nM at PKMYT1 and no less than 5000 nM in assay [1] (4 hours).

With `Cc1cnc2c(-c3c(C)ccc(O)c3C)c(N)c(C(N)=O)cc2n1` (atropisomer, axis not shown) [Compound 223], the IC50 (on PKMYT1; in assay [1] (4 hours)) was no less than 5000 nM throughout.

On to `COc1ccc2nc(C(N)=O)c(N)c(-c3cncc(C(F)F)c3C)c2n1` [Compound 314], for which the IC50 at PKMYT1 was 500 to 1000 nM; in assay [1] (Homo sapiens, HCC1806, 4 h), no less than 5000 nM.

Consider `Cc1cc(O)c(C)c(-c2c(N)c(C(N)=O)nc3cccnc23)c1` (atropisomer, axis not shown) [Compound 286], for which the IC50 at PKMYT1 is 500 to 1000 nM; in assay [1] (4 hours), no less than 5000 nM.

On to `NC(=O)c1nc2cccnc2c(-c2cnccc2C(F)(F)F)c1N` [Compound 259], for which the IC50 was 500 to 1000 nM at PKMYT1 and no less than 5000 nM in assay [1] (Homo sapiens, HCC1806, 4 h).

As to `Cc1c(O)cccc1-c1c(N)c(C(N)=O)cc2ncc(C(F)(F)F)nc12` (single isomer, unassigned) [Compound 124, (P)-7-Amino-8-(3-hydroxy-2-methylphenyl)-2-(trifluoromethyl)quinoxaline-6-carboxamide], the IC50 on PKMYT1 is less than 50 nM; in assay [1] (4 hours), 50 to 500 nM.

Turning to `Cn1ncc2c(-c3c(N)c(C(N)=O)nc4cccnc34)cncc21` [Compound 332], the IC50 on PKMYT1 is 1000 to 5000 nM; in assay [1] (Homo sapiens, HCC1806, 4 h), no less than 5000 nM.

With `COc1ccc2c(-c3c(C)ccc(O)c3C)c(N)c(C(N)=O)nc2c1` [Compound 47, 3-Amino-4-(3-hydroxy-2,6-dimethylphenyl)-7-methoxyquinoline-2-carboxamide], the IC50 fell in the range of 1000 to 5000 nM at PKMYT1 and 1000 to 5000 nM in assay [1] (Homo sapiens, HCC1806, 4 h).

In general, IC50 refers to the point on the concentration scale where inhibition reaches its midpoint.
